Experimental data reported in PubChem BioAssay AID248 (DTP/NCI, 2004).
“And” between values parts separate entries of the source, which are not always exact repeats. Equal values may be shown once. Inconclusive results and toxic doses are left out. Cut-off read from the data, not from the text of the source: active = T/C of 150% or more; inactive = T/C below 125%.

System: L1210 leukemia ip in BDF1 mice, survival T/C
Assay: NCI In Vivo Anticancer Drug Screen. Data for tumor model L1210 Leukemia (intraperitoneal) in B6D2F1 (BDF1) mice
Conditions: endpoint: mean survival time, higher = longer survival
Procedure, shortened: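 Each compound was tested against a transplantable tumor grown in mice. The endpoint was survival, with treated animals benchmarked against vehicle controls as a simple ratio.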

[1] = dose: 20.0 mg/kg/injection, schedule: Q01DX Z (ip), vehicle: methylcellulose (MC)
[2] = dose: 25.0 mg/kg/injection, schedule: Q01DX009 (ip), vehicle: saline with Tween-80
[3] = dose: 50.0 mg/kg/injection, schedule: Q01DX009 (ip), vehicle: saline with Tween-80
[4] = dose: 100.0 mg/kg/injection, schedule: Q01DX001 (ip), vehicle: saline with Tween-80
[5] = dose: 200.0 mg/kg/injection, schedule: Q01DX001 (ip), vehicle: saline with Tween-80
[6] = dose: 100.0 mg/kg/injection, schedule: Q01DX009 (ip), vehicle: saline with Tween-80
[7] = dose: 100.0 mg/kg/injection, schedule: Q01DX009 (ip), vehicle: saline
[8] = dose: 200.0 mg/kg/injection, schedule: Q01DX009 (ip), vehicle: saline
[9] = dose: 100.0 mg/kg/injection, schedule: Q01DX001 (ip), vehicle: saline
[10] = dose: 200.0 mg/kg/injection, schedule: Q01DX001 (ip), vehicle: saline
[11] = dose: 400.0 mg/kg/injection, schedule: Q01DX001 (ip), vehicle: saline
[12] = dose: 100.0 mg/kg/injection, schedule: Q01DX009 (ip), vehicle: Klucel (hydroxypropylcellulose) (HPC)
[13] = dose: 200.0 mg/kg/injection, schedule: Q01DX009 (ip), vehicle: Klucel (hydroxypropylcellulose) (HPC)
[14] = dose: 400.0 mg/kg/injection, schedule: Q01DX009 (ip), vehicle: Klucel (hydroxypropylcellulose) (HPC)
[15] = dose: 100.0 mg/kg/injection, schedule: Q04DX003 (ip), vehicle: saline
[16] = dose: 200.0 mg/kg/injection, schedule: Q04DX003 (ip), vehicle: saline
[17] = dose: 25.0 mg/kg/injection, schedule: Q04DX002 (ip), vehicle: Klucel (hydroxypropylcellulose) (HPC)
[18] = dose: 50.0 mg/kg/injection, schedule: Q04DX002 (ip), vehicle: Klucel (hydroxypropylcellulose) (HPC)
[19] = dose: 100.0 mg/kg/injection, schedule: Q04DX002 (ip), vehicle: Klucel (hydroxypropylcellulose) (HPC)
[20] = dose: 400.0 mg/kg/injection, schedule: Q04DX003 (ip), vehicle: saline

Measured: T/C

Cc1cc(N)c2cc(NC(=O)CCCCCCCC(=O)Nc3ccc4nc(C)cc(N)c4c3)ccc2n1
inactive: [1] 93 % of control | dose: 33.0 mg/kg/injection, schedule: Q01DX Z (ip), vehicle: methylcellulose (MC) 110 % of control | dose: 50.0 mg/kg/injection, schedule: Q01DX Z (ip), vehicle: methylcellulose (MC) 112 % of control | dose: 75.0 mg/kg/injection, schedule: Q01DX Z (ip), vehicle: methylcellulose (MC) 114 % of control

O=C(CCCCCCC(=O)C[n+]1ccccc1CO)C[n+]1ccccc1CO
inactive: dose: 12.5 mg/kg/injection, schedule: Q04DX003 (ip), vehicle: saline 101 % of control

COc1cc(C=O)ccc1OC(=O)Nc1cc(C)ccc1C
inactive: [2] 100 % of control and 91 % of control | dose: 50.0 mg/kg/injection, schedule: Q01DX001 (ip), vehicle: saline with Tween-80 96 % of control | [3] 97 % of control and 101 % of control | [4] 97 % of control | dose: 100.0 mg/kg/injection, schedule: Q04DX002 (ip), vehicle: saline with Tween-80 91 % of control and 92 % of control | [5] 94 % of control and 92 % of control | dose: 200.0 mg/kg/injection, schedule: Q04DX002 (ip), vehicle: saline with Tween-80 94 % of control and 106 % of control | dose: 400.0 mg/kg/injection, schedule: Q04DX002 (ip), vehicle: saline with Tween-80 94 % of control and 92 % of control

O=C(N/N=C/Cc1ccccc1)C(=O)N/N=C/Cc1ccccc1
inactive: [3] 102 % of control | [6] 91 % of control

CCCCN(CCCC)C(=N)OC1CCCCC1
inactive: dose: 8.8 mg/kg/injection, schedule: Q01DX Z (ip), vehicle: methylcellulose (MC) 93 % of control | dose: 13.3 mg/kg/injection, schedule: Q01DX Z (ip), vehicle: methylcellulose (MC) 91 % of control | [1] 97 % of control

CC(C)(C)OC(=O)c1ccc(C#N)cc1
inactive: dose: 100.0 mg/kg/injection, schedule: Q01DX001 (ip), vehicle: carboxymethylcellulose (CMC) 96 % of control | dose: 200.0 mg/kg/injection, schedule: Q01DX001 (ip), vehicle: carboxymethylcellulose (CMC) 100 % of control | dose: 400.0 mg/kg/injection, schedule: Q01DX001 (ip), vehicle: carboxymethylcellulose (CMC) 100 % of control

O=S(=O)(Nc1ccccc1F)c1cc(Cl)c(Cl)cc1Cl
inactive: [7] 96 % of control | [8] 96 % of control | dose: 400.0 mg/kg/injection, schedule: Q01DX009 (ip), vehicle: saline 94 % of control

CN=C(N)c1ccc(C(=O)OCCOC)cc1
inactive: [9] 96 % of control | [10] 107 % of control | [11] 105 % of control

S=c1nc[nH]c2nc(N=Nc3cc(Cl)ccc3Cl)[nH]c12
inactive: [9] 101 % of control | [10] 97 % of control

CCOc1ccc(NC(=O)C=O)cc1
inactive: [12] 92 % of control | dose: 100.0 mg/kg/injection, schedule: Q04DX003 (ip), vehicle: Klucel (hydroxypropylcellulose) (HPC) 94 % of control | [13] 103 % of control | dose: 200.0 mg/kg/injection, schedule: Q04DX003 (ip), vehicle: Klucel (hydroxypropylcellulose) (HPC) 94 % of control | [14] 105 % of control | dose: 400.0 mg/kg/injection, schedule: Q04DX003 (ip), vehicle: Klucel (hydroxypropylcellulose) (HPC) 97 % of control

CCC(C)NC(=O)Nc1ccccc1Cl (stereo not given)
inactive: [12] 101 % of control | [13] 95 % of control | [14] 100 % of control

COc1nccnn1
inactive: [4] 93 % of control | [5] 103 % of control | dose: 400.0 mg/kg/injection, schedule: Q01DX001 (ip), vehicle: saline with Tween-80 101 % of control

O=c1[nH]cncc1CCC1OCCO1
inactive: [7] 98 % of control | [8] 109 % of control

O=C(CCCC(=O)NNC(=O)Nc1cccc(S(=O)(=O)F)c1)NNC(=O)Nc1cccc(S(=O)(=O)F)c1
inactive: dose: 50.0 mg/kg/injection, schedule: Q01DX001 (ip), vehicle: saline 106 % of control | [9] 112 % of control | [10] 96 % of control | [11] 112 % of control

NC(N)=NNC(=S)S
inactive: [2] 102 % of control | [3] 110 % of control | dose: 50.0 mg/kg/injection, schedule: Q04DX003 (ip), vehicle: saline with Tween-80 95 % of control | dose: 100.0 mg/kg/injection, schedule: Q04DX003 (ip), vehicle: saline with Tween-80 92 % of control

O=[N+]([O-])c1c(Cl)sc(Cl)c1[N+](=O)[O-]
inactive: dose: 3.13 mg/kg/injection, schedule: Q01DX009 (ip), vehicle: saline sonified 98 % of control | dose: 6.25 mg/kg/injection, schedule: Q01DX009 (ip), vehicle: saline sonified 100 % of control | dose: 6.25 mg/kg/injection, schedule: Q04DX003 (ip), vehicle: Klucel (hydroxypropylcellulose) (HPC) 86 % of control | dose: 12.5 mg/kg/injection, schedule: Q01DX009 (ip), vehicle: saline sonified 101 % of control | dose: 12.5 mg/kg/injection, schedule: Q04DX003 (ip), vehicle: Klucel (hydroxypropylcellulose) (HPC) 86 % of control

CN(C)C(=NN)N(C)C
inactive: dose: 50.0 mg/kg/injection, schedule: Q04DX003 (ip), vehicle: saline 105 % of control | [15] 100 % of control | [16] 100 % of control

C/C(=N/Nc1ccc([N+](=O)[O-])cc1[N+](=O)[O-])C(C)(C)C
inactive: [17] 87 % of control | [18] 93 % of control | [19] 101 % of control and 90 % of control | dose: 200.0 mg/kg/injection, schedule: Q04DX002 (ip), vehicle: Klucel (hydroxypropylcellulose) (HPC) 97 % of control | dose: 400.0 mg/kg/injection, schedule: Q04DX002 (ip), vehicle: Klucel (hydroxypropylcellulose) (HPC) 93 % of control

O=C1CCCc2cc(Cl)c(Cl)cc21
inactive: [12] 108 % of control | [13] 96 % of control | [14] 101 % of control

CCCCCC(=O)OC1(C(C)=O)CCC2C3CCC4=CC(=O)CCC4C3CCC21C (stereo not given)
inactive: dose: 12.5 mg/kg/injection, schedule: Q04DX002 (ip), vehicle: Klucel (hydroxypropylcellulose) (HPC) 94 % of control | [17] 90 % of control | [18] 94 % of control

CN1CCN(c2ccccc2N)CC1
inactive: dose: 5.0 mg/kg/injection, schedule: Q04DX003 (ip), vehicle: saline 107 % of control | dose: 10.0 mg/kg/injection, schedule: Q04DX003 (ip), vehicle: saline 96 % of control | dose: 20.0 mg/kg/injection, schedule: Q04DX003 (ip), vehicle: saline 96 % of control

O=S=Nc1c(Cl)cc(Cl)cc1Cl
inactive: [12] 101 % of control | [13] 104 % of control | [14] 108 % of control

CCOC(=O)c1ccc(NC(=O)Oc2cccc(NC(C)=O)c2)cc1
inactive: [12] 92 % of control | [13] 95 % of control | [14] 92 % of control

N#CCCN(CCc1ccccn1)C(=S)Nc1cccc(C(F)(F)F)c1
inactive: dose: 100.0 mg/kg/injection, schedule: Q01DX009 (ip), vehicle: other 110 % of control | dose: 200.0 mg/kg/injection, schedule: Q01DX009 (ip), vehicle: other 98 % of control | dose: 400.0 mg/kg/injection, schedule: Q01DX009 (ip), vehicle: other 110 % of control

CCC/C=C/C(O)C1CCCCC1 (stereo not given)
inactive: [3] 92 % of control | [6] 95 % of control | dose: 200.0 mg/kg/injection, schedule: Q01DX009 (ip), vehicle: saline with Tween-80 95 % of control

O=c1[nH]c(=O)n(C2CC=CO2)cc1F (stereo not given)
inactive: [15] 111 % of control | [16] 113 % of control | [20] 117 % of control

O=Cc1cccn1-c1cccc2c(-n3cccc3C=O)cccc12
inactive: [17] 97 % of control | [18] 93 % of control | [19] 97 % of control

CCC[CH2][Sn]([Cl])([CH2]CCC)[CH2]CCC
inactive: dose: 2.0 mg/kg/injection, schedule: Q01DX009 (ip), vehicle: saline 94 % of control | dose: 2.0 mg/kg/injection, schedule: Q04DX003 (ip), vehicle: saline 103 % of control | dose: 4.0 mg/kg/injection, schedule: Q01DX009 (ip), vehicle: saline 90 % of control | dose: 4.0 mg/kg/injection, schedule: Q04DX003 (ip), vehicle: saline 100 % of control | dose: 8.0 mg/kg/injection, schedule: Q01DX009 (ip), vehicle: saline 98 % of control | dose: 8.0 mg/kg/injection, schedule: Q04DX003 (ip), vehicle: saline 97 % of control

Cc1cc(=O)n(-c2ccccc2)n1C
inactive: [15] 104 % of control | [16] 106 % of control | [20] 106 % of control
